Measured values: US8410178B2, “CIS 3,4-dihydroxy-2-(3-methylbutanoyl)-5-(3-methylbutyl)-4-(4-methylpentanoyl)cyclopent-2-en-1-derivatives, substantially enantiomerically pure compositions and methods” (KinDex Therapeutics, LLC, priority 2010, dated 2013)
pIC50, pKi: −log10 of the molar value.

What was measured:
[1] = target: T1, peroxisome proliferator-activated receptor gamma (PPARγ) (Homo sapiens, UniProt P37231); experiment: Competitive binding to PPARγ ([3H]rosiglitazone)
T1 sequence (P37231 1-505): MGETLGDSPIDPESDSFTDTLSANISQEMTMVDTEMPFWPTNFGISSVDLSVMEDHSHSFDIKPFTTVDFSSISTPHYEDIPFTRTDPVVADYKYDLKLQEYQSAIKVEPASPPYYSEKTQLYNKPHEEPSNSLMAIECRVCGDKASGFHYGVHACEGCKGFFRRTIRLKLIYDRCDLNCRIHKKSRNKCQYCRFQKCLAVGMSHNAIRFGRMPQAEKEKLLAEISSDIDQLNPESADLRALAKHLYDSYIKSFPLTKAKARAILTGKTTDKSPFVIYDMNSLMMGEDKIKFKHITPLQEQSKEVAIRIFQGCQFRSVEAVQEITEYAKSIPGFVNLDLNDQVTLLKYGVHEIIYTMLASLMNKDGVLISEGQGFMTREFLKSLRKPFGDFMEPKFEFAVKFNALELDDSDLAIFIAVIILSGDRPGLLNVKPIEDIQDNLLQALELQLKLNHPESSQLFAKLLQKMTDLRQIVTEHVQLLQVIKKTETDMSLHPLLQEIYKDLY

[2] = target: T2, angiotensin II receptor type II (AGTR2) (Homo sapiens, UniProt P50052); experiment: Competitive binding to AGTR2 ([125I]CGP 42112A); conditions: binding target AGTR2; competitor ligand Angiotensin-II
T2 sequence (P50052 1-363): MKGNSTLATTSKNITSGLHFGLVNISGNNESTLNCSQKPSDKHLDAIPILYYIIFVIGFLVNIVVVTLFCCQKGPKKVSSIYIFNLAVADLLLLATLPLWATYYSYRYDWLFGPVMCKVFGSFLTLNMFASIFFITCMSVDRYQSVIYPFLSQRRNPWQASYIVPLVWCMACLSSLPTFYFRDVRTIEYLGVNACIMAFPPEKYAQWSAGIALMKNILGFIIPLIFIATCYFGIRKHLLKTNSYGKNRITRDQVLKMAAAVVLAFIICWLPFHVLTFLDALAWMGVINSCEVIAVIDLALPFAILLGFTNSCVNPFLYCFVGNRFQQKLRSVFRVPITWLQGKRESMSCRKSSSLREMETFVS

PPARγ = target: T3, PPARγ (Homo sapiens, UniProt P37231); experiment: PPARγ luciferase reporter assay; assay type: cell-based
T3 sequence (P37231 1-505): T1 sequence (P37231 1-505)
Experimental: (§1) The functional effect of (+)-KDT501 on PPARα, PPARδ, and PPARγ activity was evaluated using a PPAR reporter assay (INDIGO Biosciences, PA). This assay utilizes non-human mammalian cells engineered to provide constitutive high level expression of PPARα, PPARδ, or PPARγ and containing a luciferase report gene specific to the appropriate PPAR. Following activation by agonist binding, PPAR induces expression of the luciferase reporter gene. Luciferase activity therefore provides a surrogate for measuring PPAR activity in agonist-treated cells.
(§2) Reporter cells were plated on a 96-well plate at 100 μL per well, and 100 μL of (+)-KDT501 at various final concentrations (25, 12.5, 6.25, 3.125, 1.56 and 0.78 μM) was added to each well. […] 0.1% DMSO was also used as a negative control for each assay. Plates are incubated for 20 hours in a humidified incubator at 37° C. and 5% CO2. After incubation, cell medium was discarded and the cells were treated with 100 μL of luciferase detection reagent for 15 minutes. Plates were analyzed using a luminometer (Victor2, Perkin Elmer). Average relative light unit (RLU) and standard deviation were analyzed using GraphPad Prism.
The PPAR activity assays were repeated as described above using both (+)-KDT501(12.5, 6.25, 3.125, 1.56, and 0.78 μM) and (−)-KDT501 (25, 12.5, 6.25, 3.125, 1.56, and 0.78 μM).

PPARα = target: T4, PPARα (Homo sapiens, UniProt Q07869); experiment: PPARα luciferase reporter assay; assay type: cell-based; conditions: reporter cells, 20 hours
T4 sequence (Q07869 1-468): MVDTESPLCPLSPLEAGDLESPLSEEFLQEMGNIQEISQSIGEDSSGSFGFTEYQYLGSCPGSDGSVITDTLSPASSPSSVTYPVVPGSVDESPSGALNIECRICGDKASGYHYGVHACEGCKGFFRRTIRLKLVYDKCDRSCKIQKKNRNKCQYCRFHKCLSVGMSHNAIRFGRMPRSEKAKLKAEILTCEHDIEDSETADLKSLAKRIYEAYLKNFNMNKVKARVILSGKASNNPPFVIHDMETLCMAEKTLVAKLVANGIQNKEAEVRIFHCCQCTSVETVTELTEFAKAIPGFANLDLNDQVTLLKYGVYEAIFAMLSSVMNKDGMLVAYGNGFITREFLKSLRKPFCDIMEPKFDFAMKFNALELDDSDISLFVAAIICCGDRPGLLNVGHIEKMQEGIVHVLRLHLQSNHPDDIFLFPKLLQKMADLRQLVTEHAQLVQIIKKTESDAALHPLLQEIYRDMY
Experimental: as §1, §2

PPARδ = target: T5, PPARδ (Homo sapiens, UniProt Q03181); experiment: PPARδ luciferase reporter assay; assay type: cell-based; conditions: reporter cells, 20 hours
T5 sequence (Q03181 1-441): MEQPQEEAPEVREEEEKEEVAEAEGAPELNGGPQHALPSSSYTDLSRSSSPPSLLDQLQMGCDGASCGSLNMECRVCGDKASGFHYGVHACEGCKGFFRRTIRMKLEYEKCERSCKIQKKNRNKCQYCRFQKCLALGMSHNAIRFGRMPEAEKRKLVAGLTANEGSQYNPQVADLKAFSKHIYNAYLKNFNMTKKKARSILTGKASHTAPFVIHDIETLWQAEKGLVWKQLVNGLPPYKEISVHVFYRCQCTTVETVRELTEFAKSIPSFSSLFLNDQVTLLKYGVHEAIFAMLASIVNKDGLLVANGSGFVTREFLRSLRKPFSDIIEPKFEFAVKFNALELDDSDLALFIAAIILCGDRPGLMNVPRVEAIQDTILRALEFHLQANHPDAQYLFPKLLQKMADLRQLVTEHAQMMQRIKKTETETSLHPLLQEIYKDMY
Experimental: as §1, §2

Human DAPK1 = Human DAPK1 (Homo sapiens, UniProt P53355); experiment: DAPK1 activity, cell free kinase assay; assay type: biochemical; conditions: cell free assay
Experimental: The effect of (+)-KDT501 and (−)-KDT501 on death-associated protein kinase 1 (DAPK1) activity was evaluated.
Human DAPK1 was incubated with 8 mM MOPS, pH 7.0, 0.2 mM EDTA, 250 μM ZIP peptide substrate ([…]), 10 mM MgOAc, and [γ-^33P-ATP] (specific activity approximately 500 cpm/pmol, concentration as required). (+)-KDT501 or (−)-KDT501 at varying concentrations (100, 30, 10, 1, 0.3, 0.1, 0.03, 0.01 μM) were added to the reaction mixture. The reaction was initiated by addition of the MgATP mix. After incubation for 40 minutes at room temperature, the reaction was stopped by addition of 3% phosphoric acid solution. 10 μL of reaction mixture was spotted onto a P30 filtermat, washed three times for five minutes in 75 mM phosphoric acid and once in methanol prior, then dried and subjected to scintillation counting.

Sequence of Human DAPK1 (P53355 whole entry): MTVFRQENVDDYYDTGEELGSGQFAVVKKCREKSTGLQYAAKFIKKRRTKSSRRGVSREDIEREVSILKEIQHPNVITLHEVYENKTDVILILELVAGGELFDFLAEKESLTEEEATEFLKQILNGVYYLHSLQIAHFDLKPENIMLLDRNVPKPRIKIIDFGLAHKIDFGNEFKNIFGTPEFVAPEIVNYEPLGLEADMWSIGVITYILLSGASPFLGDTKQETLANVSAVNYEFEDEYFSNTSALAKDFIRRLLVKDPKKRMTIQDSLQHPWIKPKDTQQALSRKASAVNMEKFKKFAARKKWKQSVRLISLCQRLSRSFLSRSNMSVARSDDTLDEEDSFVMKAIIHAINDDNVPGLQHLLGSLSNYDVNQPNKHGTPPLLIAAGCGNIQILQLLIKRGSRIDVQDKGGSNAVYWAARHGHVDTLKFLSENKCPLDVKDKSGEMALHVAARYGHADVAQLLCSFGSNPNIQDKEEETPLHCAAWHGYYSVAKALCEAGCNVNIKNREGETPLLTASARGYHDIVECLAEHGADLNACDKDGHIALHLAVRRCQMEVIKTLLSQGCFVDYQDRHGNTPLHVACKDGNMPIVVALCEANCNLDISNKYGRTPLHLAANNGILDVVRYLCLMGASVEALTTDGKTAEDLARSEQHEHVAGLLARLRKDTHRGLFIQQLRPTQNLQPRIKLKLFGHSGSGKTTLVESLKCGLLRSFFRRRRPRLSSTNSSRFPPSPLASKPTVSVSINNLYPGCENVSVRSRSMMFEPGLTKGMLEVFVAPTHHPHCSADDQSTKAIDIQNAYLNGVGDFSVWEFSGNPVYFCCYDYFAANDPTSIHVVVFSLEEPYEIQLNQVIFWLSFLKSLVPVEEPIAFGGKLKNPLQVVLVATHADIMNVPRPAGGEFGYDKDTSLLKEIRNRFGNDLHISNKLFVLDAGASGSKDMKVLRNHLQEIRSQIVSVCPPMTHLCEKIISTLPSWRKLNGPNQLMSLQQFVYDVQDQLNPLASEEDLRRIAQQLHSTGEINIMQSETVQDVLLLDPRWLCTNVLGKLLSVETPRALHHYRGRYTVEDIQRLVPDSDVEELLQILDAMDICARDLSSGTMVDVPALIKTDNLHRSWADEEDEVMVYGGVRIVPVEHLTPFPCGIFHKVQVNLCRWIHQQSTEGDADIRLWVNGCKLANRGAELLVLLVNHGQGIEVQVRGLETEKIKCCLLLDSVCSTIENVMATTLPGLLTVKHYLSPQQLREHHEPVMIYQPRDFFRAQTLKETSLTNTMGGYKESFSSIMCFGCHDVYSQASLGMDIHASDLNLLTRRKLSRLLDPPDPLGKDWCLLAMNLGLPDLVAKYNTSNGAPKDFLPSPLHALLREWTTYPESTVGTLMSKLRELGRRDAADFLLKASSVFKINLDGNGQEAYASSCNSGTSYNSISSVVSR

CC(C)CCC(=O)[C@]1(O)C(O)=C(C(=O)CC(C)C)C(=O)[C@H]1CCC(C)C [(−)-KDT501]
pIC50 [1]: 4.52
pKi [1]: 4.80
nH ([1]; binding target PPARγ, competitor ligand Rosiglitazone): 1.1
pIC50 [2]: 4.49
pKi [2]: 4.80
nH [2]: 0.9
PPARγ reporter activity (RLU) (PPARγ; concentration of test compound 3.13 μM): 547 RLU
PPARγ reporter activity (RLU) (PPARγ; concentration of test compound 6.25 μM): 972 RLU
PPARγ reporter activity (RLU) (PPARγ; concentration of test compound 12.5 μM): 2407 RLU
PPARγ reporter activity (RLU) (PPARγ; concentration of test compound 25 μM): 4244 RLU
PPARγ activity (PPARγ; reporter cells, 20 hours): increased PPARγ activity, but to a significantly lesser degree than (+)-KDT501
PPARα activity (PPARα): little or no effect
PPARδ activity (PPARδ): little or no effect
pIC50 (Human DAPK1): 4.39
